{
  "source": "patent US10799505B2",
  "about": "“Crystalline form of (S)-N-(5-((R)-2-(2,5-difluorophenyl)-pyrrolidin-1-yl)-pyrazolo[1,5-A]pyrimidin-3-yl)-3-hydroxypyrrolidine-1-carboxamide hydrogen sulfate” (Array BioPharma, Inc., priority 2014, dated 2020)",
  "type_in_all_cases": "physicochemical",
  "key": {"[1]": {"test": "Accelerated stability, open vials in LDPE bag, 40° C./75% RH, five weeks", "description": "Upon removal from the chamber, the samples were physically characterized by appearance, KF, TGA, DSC, XRD and PLM. The samples were also analyzed by HPLC for chromatographic purity, chiral integrity and potency. Where applicable, the data presented in the stability portion also includes the original T=0 data for comparison purposes. The data can be seen in Tables 25-29 and FIGS. 40-44."}, "[2]": {"test": "Dynamic vapor sorption / humidity exposure (IGAsorp, 25° C.)", "conditions": "at 80% RH, hydrogen sulfate", "description": "• 1. The hygroscopicity was studied at 25° C. using an IGAsorp analyzer. • 2. About 15 mg of sample was placed in a tared mesh sample holder at an initial ambient room humidity setting of ˜35%. • 3. A total wet/dry nitrogen flow rate of 250 cc/min is used throughout the study. • 4. […] The maximum time allowed at any one humidity set point was 120 min. The sample was maintained under dry N2 after the cycle was completed. Percent weight gain was calculated based on the dry weight basis."}, "[3]": {"test": "Angle of repose", "conditions": "for Angle of Repose θ: one side of the pile; for Angle of Repose φ: other side of the pile", "description": "The angle of repose is the angle formed by the horizontal base of the surface and the edge of a cone-like pile of granules. It is calculated from the following equation: […]\nThe angle of repose was measured by slowly pouring approximately 1 g of sample through a funnel with a 3/16″ inner diameter of the outlet. The powder then fell 1 11/16″ to land on the surface of an overturned crystallization dish on which a pile of powder formed. A picture was taken of the pile after addition of all of the material. The angle between the dish surface and the surface of the pile was measure via a protractor on the pictures. Care was taken to replicate the same positions and fall distances in the set up between different samples."}, "[4]": {"test": "Bulk and tap densities, Carr's Index, Hausner Ratio", "description": "The powder was added to a pre-weighed 10 mL graduated cylinder through a funnel that was not in direct contact with the graduated cylinder to avoid transference of vibrations. Powder was added until a 10 mL volume was reached and then the graduated cylinder with powder was weighed. The bulk density was calculated by\n[formula] The same sample in the graduated cylinder was tapped for the following sequence: 100, 150, 250, 250 taps. The volume was measured after each interval. The tapped density was calculated by\nThe Carr's Index was calculated according to the following equation: […]\nThe Hausner Ratio was calculated with the following equation: […]"}, "[5]": {"test": "Dynamic vapor sorption (DVS-1 system)", "conditions": "for DVS (outcome): HCl: at 50-60% RH", "description": "For the DVS measurement a sample of crystalline form (I-HS) was cycled through changing humidity conditions to determine its hygroscopicity. The sample was analyzed using a Surface Measurement System DVS-1 Dynamic Vapor Sorption System. […] Data was collected in 1 minute intervals. Nitrogen was used as the carrier gas. […] After completion of the sorption cycle, the sample was dried using the same procedure, but all the way down to 0% RH and finally taken back to the starting point of 20% RH. The weight change during the sorption/desorption cycles were plotted, allowing for the hygroscopic nature of the sample to be determined."}, "[6]": {"test": "Stability on aluminum slide at 40° Celsius/75% RH", "conditions": "I-HS 10 days; HCl after 1 hour; HBr after 2 weeks; mesylate overnight"}},
  "data": [
    {"smiles": "O=C(Nc1cnn2ccc(N3CCC[C@@H]3c3cc(F)ccc3F)nc12)N1CC[C@H](O)C1.O=S(=O)(O)O", "note": "[AM(HS)1, (S)—N-(5-((R)-2-(2,5-difluorophenyl)-pyrrolidin-1-yl)-pyrazolo[1,5-a]pyrimidin-3-yl)-3-hydroxypyrrolidine-1-carboxamide hydrogen sulfate]", "values": [
      {"measurement": "Appearance", "setting": "[1]; 40° C./75% RH, 5 wks", "result": "Orange Powder"},
      {"measurement": "Assay (HPLC)", "setting": "[1]; 40° C./75% RH, 5 wks", "result": 80.3, "unit": "%"},
      {"measurement": "Chiral Potency (HPLC)", "setting": "[1]; 40° C./75% RH, 5 wks", "result": 99.6, "unit": "%"},
      {"measurement": "KF (water content)", "setting": "[1]; 40° C./75% RH, 5 wks", "result": 0.56, "unit": "w/w %"},
      {"measurement": "Peak Area Percent, RRT 0.793", "setting": "[1]; 40° C./75% RH, 5 wks", "result": 0.00},
      {"measurement": "Peak Area Percent, RRT 0.863", "setting": "[1]; 40° C./75% RH, 5 wks", "result": 1.04},
      {"measurement": "Peak Area Percent, RRT 0.981", "setting": "[1]; 40° C./75% RH, 5 wks", "result": 0.12},
      {"measurement": "Peak Area Percent, RRT 1.000", "setting": "[1]; 40° C./75% RH, 5 wks", "result": 98.83},
      {"measurement": "Peak Area Percent, RRT 1.535", "setting": "[1]; 40° C./75% RH, 5 wks", "result": 0.00},
      {"measurement": "Total Impurities (HPLC)", "setting": "[1]; 40° C./75% RH, 5 wks", "result": 1.16, "unit": "%"},
      {"measurement": "change of API chemical purity", "setting": "[1]; 40° C./75% RH, five weeks", "result": "did not change significantly"},
      {"measurement": "Appearance", "setting": "[1]; time point 0 wks", "result": "Yellow Powder"},
      {"measurement": "Assay (HPLC)", "setting": "[1]; time point 0 wks", "result": 79.5, "unit": "%"},
      {"measurement": "Chiral Potency (HPLC)", "setting": "[1]; time point 0 wks", "result": 99.6, "unit": "%"},
      {"measurement": "KF (water content)", "setting": "[1]; time point 0 wks", "result": 2.00, "unit": "w/w %"},
      {"measurement": "Peak Area Percent, RRT 0.793", "setting": "[1]; time point 0 wks", "result": 0.00},
      {"measurement": "Peak Area Percent, RRT 0.863", "setting": "[1]; time point 0 wks", "result": 0.98},
      {"measurement": "Peak Area Percent, RRT 0.981", "setting": "[1]; time point 0 wks", "result": 0.12},
      {"measurement": "Peak Area Percent, RRT 1.000", "setting": "[1]; time point 0 wks", "result": 98.89},
      {"measurement": "Peak Area Percent, RRT 1.535", "setting": "[1]; time point 0 wks", "result": 0.00},
      {"measurement": "Total Impurities (HPLC)", "setting": "[1]; time point 0 wks", "result": 1.10, "unit": "%"},
      {"measurement": "mass gained in DVS", "setting": "[2]", "result": "greater than 13%"}
    ]},
    {"smiles": "O=C(Nc1cnn2ccc(N3CCC[C@@H]3c3cc(F)ccc3F)nc12)N1CC[C@H](O)C1.O=S(=O)(O)O", "note": "[AM(HS)2, (S)—N-(5-((R)-2-(2,5-difluorophenyl)-pyrrolidin-1-yl)-pyrazolo[1,5-a]pyrimidin-3-yl)-3-hydroxypyrrolidine-1-carboxamide hydrogen sulfate]", "values": [
      {"measurement": "mass gained in DVS", "setting": "[2]", "result": "~12", "unit": "%"}
    ]},
    {"smiles": "O=C(Nc1cnn2ccc(N3CCC[C@@H]3c3cc(F)ccc3F)nc12)N1CC[C@H](O)C1.O=S(=O)(O)O", "note": "[AR00457470-33]", "values": [
      {"measurement": "Angle of Repose Average", "setting": "[3]", "result": 45.70, "unit": "°"},
      {"measurement": "Angle of Repose θ", "setting": "[3]", "result": 47.79, "unit": "°"},
      {"measurement": "Angle of Repose φ", "setting": "[3]", "result": 43.6, "unit": "°"},
      {"measurement": "Bulk Density", "setting": "[4]", "result": 423.6, "unit": "mg/mL"},
      {"measurement": "Tapped Density", "setting": "[4]", "result": 622.9, "unit": "mg/mL"}
    ]},
    {"smiles": "Br.O=C(Nc1cnn2ccc(N3CCC[C@@H]3c3cc(F)ccc3F)nc12)N1CC[C@H](O)C1", "note": "[HBr, (S)—N-(5-((R)-2-(2,5-difluorophenyl)pyrrolidin-1-yl)pyrazolo[1,5-a]pyrimidin-3-yl)-3-hydroxypyrrolidine-1-carboxamide hydrobromide]", "values": [
      {"measurement": "DVS (outcome)", "setting": "[5]", "result": "(deliquesced)"},
      {"measurement": "DVS weight gain", "setting": "[5]; at 80% RH", "result": "~3.9", "unit": "% gain at 80%"},
      {"measurement": "DVS weight gain", "setting": "[5]; at 90% RH", "result": "~25", "unit": "% gain at 90%"},
      {"measurement": "Stability at 40° Celsius/75% RH (aluminum slide)", "setting": "[6]", "result": "amorphous"}
    ]},
    {"smiles": "Cl.O=C(Nc1cnn2ccc(N3CCC[C@@H]3c3cc(F)ccc3F)nc12)N1CC[C@H](O)C1", "note": "[HCl, (S)—N-(5-((R)-2-(2,5-difluorophenyl)pyrrolidine-1-yl)pyrazolo[1,5-a]pyrimidin-3-yl)-3-hydroxypyrrolidine-1-carboxamide hydrochloride]", "values": [
      {"measurement": "DVS (outcome)", "setting": "[5]", "result": "form change"},
      {"measurement": "DVS weight gain", "setting": "[5]; at 50% RH", "result": "~1", "unit": "% gain at 50%"},
      {"measurement": "Stability at 40° Celsius/75% RH (aluminum slide)", "setting": "[6]", "result": "form change"}
    ]},
    {"smiles": "O=C(Nc1cnn2ccc(N3CCC[C@@H]3c3cc(F)ccc3F)nc12)N1CC[C@H](O)C1", "note": "[L-ARR10-118]", "values": [
      {"measurement": "Angle of Repose Average", "setting": "[3]", "result": 50.28, "unit": "°"},
      {"measurement": "Angle of Repose θ", "setting": "[3]", "result": 50.28, "unit": "°"},
      {"measurement": "Angle of Repose φ", "setting": "[3]", "result": 50.28, "unit": "°"},
      {"measurement": "Bulk Density", "setting": "[4]", "result": 594.8, "unit": "mg/mL"},
      {"measurement": "Tapped Density", "setting": "[4]", "result": 762.6, "unit": "mg/mL"}
    ]},
    {"smiles": "CS(=O)(=O)O.O=C(Nc1cnn2ccc(N3CCC[C@@H]3c3cc(F)ccc3F)nc12)N1CC[C@H](O)C1", "note": "[Mesylate, (S)—N-(5-((R)-2-(2,5-difluorophenyl)pyrrolidin-1-yl)pyrazolo[1,5-a]pyrimidin-3-yl)-3-hydroxypyrrolidine-1-carboxamide methanesulfonate]", "values": [
      {"measurement": "DVS (outcome)", "setting": "[5]", "result": "(crystalline)"},
      {"measurement": "DVS weight gain", "setting": "[5]; at 80% RH", "result": "~9", "unit": "% gain at 80%"},
      {"measurement": "DVS weight gain", "setting": "[5]; at 90% RH", "result": "~50", "unit": "% gain at 90%"},
      {"measurement": "Stability at 40° Celsius/75% RH (aluminum slide)", "setting": "[6]", "result": "Deliquesced"}
    ]}
  ]
}
